Source: publication PMC10235067, “Increased renal elimination of endogenous and synthetic pyrimidine nucleosides in concentrative nucleoside transporter 1 deficient mice” (Nature Communications, 2023)

System: CNT1
Description: Linearity was established for analytes over the concentration ranges observed and the lower limit of quantification of the LC–MS/MS assay was approximately 0.1 ng/ml for each analyte (Fig. S2).
Standard solutions of all nucleotide targets were serially diluted to generate calibration solutions at concentrations of 0.0, 0.0001, 0.001, 0.01, 0.1, 1.0, and 10 µg/ml. Urine samples were prepared by adding 20 µL of urine solution to 80 µL of 50:50 H2O:MeOH containing internal standard, vortexing and centrifuging at 20,000 × g; then, 50 µL aliquots were placed into glass vials, dried in a SpeedVac and reconstituted in 5% MeOH with 0.1% formic acid for injection.
Samples were quantified using a heated electrospray ionization source (HESI) on a Thermo Scientific TQS Quantiva triple quadrupole mass spectrometer, and separation was achieved using a Thermo Scientific Ultimate 3000 HPLC equipped with an Agilent 120 SB-C18 reversed-phase column (2 × 100 mm, 2.7 µm particle size) maintained at 40 °C. […] For all experiments, the capillary voltage was set to 4.5 kV with a capillary temperature of 350 °C, a vaporizer temperature of 100 °C, a sheath gas flow of 12, an auxiliary gas flow of 13, and a 1.6 sweep gas. For selected reaction monitoring (SRM) mode, Q1 and Q3 were set to 0.7 full width at half maximum (FWHM) resolution, a cycle time of 0.8 s, and a CID gas pressure of 1.5 mTorr.

concentration in urine, Slc28a1+/+ vs Slc28a1-/- (12 h starvation)	fold increase of content in urine of Slc28a1-/- mice (Slc28a1-/- vs Slc28a1+/+, urine collected over 12 h starvation, 8-week-old mice, n = 6) [fold]	SMILES
not significantly different		Nc1nc2c(ncn2[C@@H]2O[C@H](CO)[C@@H](O)[C@H]2O)c(=O)[nH]1 [Guanosine]
	7.5	Cc1cn([C@H]2C[C@H](O)[C@@H](CO)O2)c(=O)[nH]c1=O [Thymidine]
